Laboratory results from patent publication US6399568B1, “Cyclic tetrapeptide derivatives and medicinal use thereof” (Japan Energy Corporation, priority 1997, dated 2002).
pIC50: −log10 of the molar value. Non-standard residues stand in square brackets, D forms with d. Residues, ends and D or L forms follow the SMILES beside them. *: point of attachment. Asu = N[C@@H](CCCCCC(=O)O)C(=O)O; NHOH = ON*

Experiments:
B16 = assay: In vivo anti-cancer activity in mouse (solid tumor system); settings: measured day-21, estimated from diameters
Protocol: (§1) Three mouse cancers Colon26, Meth A and B16 were used to evaluate in vivo anti-cancer activity of the cyclic tetrapeptide compounds according to the present invention in a solid tumor system. The cancer cells were cultured in a conventional manner, suspended in PBS and intradermally transplanted into a mouse ventral portion (10^5). The mouse used was CDF1, Balb/c or BDF1 (male, 7 weeks in age) for Colon 26, Meth A or B16, respectively. On day-4, 7 and 10 for Colon 26, or on day-7, 10, 13 and 16 for Meth A and B16 (day-0 being the day of cancer transplantation), a given amount of solution containing a predetermined amount of a compound to be tested was administered into the tail vein (10, 3 and 1 mg/kg; 2 ml/kg). In this example, the solution for administration used was PBS suspension (as neutralized with NaOH). On day-14 for Colon26 and on day-21 for Meth A and B16, the size of tumor (shorter and longer diameters) was measured. The tumor weight was estimated from the value obtained by calculation from the equation: ½×longer diameter×shorter diameter^2. Anti-tumor effects were based on the estimated tumor weight used as a measure and a tumor weight was estimated for a control group to which an equal amount of a drug-free solution was added; % inhibition was determined on the basis of the difference between the estimated tumor weights for the treated and control groups.

Meth A = assay: as above
Protocol: as §1

Colon 26 = assay: as above; settings: measured day-14, estimated from diameters
Protocol: as §1

[1] = tested on: mouse malignant melanoma B16 cell line; assay: Cell proliferation inhibition (72 hours); type: cell-based; settings: read-out: 50% proliferation inhibiting concentration B16 (nM) mean
Excerpt: In order to verify the action of the cyclic tetrapeptide derivative according to the present invention in inhibiting cell proliferation in cancerized cells, the action on the proliferation of the aforementioned B16/BL6 cells was investigated. The evaluation of cell proliferation rates was done utilizing a commercially available measuring kit, specifically, from Promega under the trade name CellTiter 96 Aqueous Non-Radioactive Proliferation Assay Kit. In the measuring kit, the amount of products through reduction of a reagent tetrazolium compound (3-(4,5-dimethylthiazol-2-yl)-5-(3-carboxymethoxyphenyl)-2-(4-sulfophenyl)-2H-tetrazolium, inner salt; MTS) by viable animal cells is determined by detecting spectrophotometrically the color generated from the products. Since the amount of products is proportional to the amount of viable cells, this kit is utilized to evaluate the amount of viable cells.
According to the procedure of Test Example 1, B16/BL6 cells are inoculated in a 96 well microplate and cultured for 24 hours. Then, 10 μl of a solution of the source solution of a compound to be tested which has been diluted to a predetermined amount per well is added. Thereafter, culture is continued for additional 48 hours and 20 μl of a reagent solution in the aforementioned CellTiter 96 Aqueous Non-Radioactive Proliferation Assay Kit is then added. After incubation is continued at 37° C. for 1 hour, the amount of color generation is measured as an absorbance at 490 n musing a microplate reader.
The amount of cell proliferation of a group to which a compound to be tested is added is expressed in a relative value as compared to the standard cell proliferation (100%) in a control group to which no compound to be tested is added. For each compound tested, the amounts of cell proliferation were measured at different concentrations of addition and the dependence of the quantitative cell proliferation on the concentration of addition was investigated. From the results, a concentration of addition at which the amount of cell proliferation was inhibited by 50% relative to the amount of cell proliferation in the control group without addition was determined.
The test method was in accordance with the above-mentioned procedure, except that the period of incubation after the addition of a compound was 72 hours.
As illustrative examples, results are shown for an evaluation using mouse malignant melanoma B16/BL6 and B16 cell lines; leukemia L1210 cell line, colon cancer Colon26 cell line, and liver cancer MH134 cell line as cancer cells. For the cell proliferation inhibiting action of each compound tested for these cancer cells, 50% proliferation inhibiting concentrations are shown in Table 4.

B16/BL6 cells = assay: MHC class-I molecule expression promoting activity; type: cell-based, mouse; settings: mean of a plurality of assays; 72 hours
Protocol: The cancer cells used were mouse melanoma cells, B16/BL6 cells, provided by, the National Cancer Institute, U.S.A. Said cells were cultivated in MEM media supplemented with 10% FBS at 37° C. in the presence of 5% carbon dioxide in an humidified incubator.
A compound to be tested was preliminarily dissolved in dimethyl sulfoxide (DMSO) and adjusted to a concentration of 100 mM or 10 mM (source solution).
Said B16/BL6 cells were inoculated on 96 well microplate at a cell density of 5000 cells per well, each well containing 200 μl of said medium. […] Thereafter, each well was once washed with PBS (phosphate buffered saline) and floating cells and the medium were removed. Then, the well was treated with 0.1% glutaraldehyde solution for 3 minutes to fix the cells.
The amount of MHC class-I molecule expressed on the surface of the fixed cells was measured by the following method. Anti-H-2K^bD^bD^d antibody, which is an antibody against mouse MHC classI molecule (commercially available from Meiji Milk Co., Ltd), was used as a primary antibody, biotinylated anti-mouse IgG+M (commercially available from Chemicon) was used as a secondary antibody, and streptavidin-β-galactosidase conjugate (commercially available from BRL) was reacted as a labelling enzyme. The amount of the thus labelled enzyme β-galactosidase was measured in a microplate reader by recording the fluorescent intensity (excitation: 365 nm, fluorescence: 450 nm) derived from the enzymaticreaction product using 4-methylumbelliferyl-β-D-galactoside (commercially available from Nacalai Tesque) as a substrate. […] The value obtained by subtracting said background level from the, actually measured value (an apparent value including the background level) was the true measurement reflecting the amount of expressed MHC class-I molecule.
A group without the addition of any compound to be tested was used as a reference group and the measurement of MHC class-I molecule expressed in said group was used as a standard value. The amount of MHC class-I molecule expressed at a concentration of addition of each test compound is shown as a relative amount, said standard value taken as one (1). For each compound to be tested, various concentrations of addition were selected to investigate the dependency of MHC class-I molecule expression promoting action on the concentration of addition.

histone deacetylase = assay: Histone deacetylase enzyme inhibiting activity, synthetic peptide substrate; type: biochemical, mouse; settings: enzyme from B16/BL6 cells; [3H]acetylated histone H4 peptide; 37° C. 3 hours
In short: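 Crude HDAC was partially purified from B16/BL6 cell nuclei by ammonium sulfate precipitation and gel filtration. Enzyme was incubated with [^3H]acetylated histone H4 N-terminal peptide and compound at 37° C. for 3 h. Released [^3H]acetate was ethyl acetate-extracted and counted, giving IC50 versus the no-compound control.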

In the case of `CC[C@H](C)[C@@H]1NC(=O)[C@@H](Cc2ccc(OC)cc2)NC(=O)[C@H](CCCCCC(=O)NO)NC(=O)[C@H]2CCCN2C1=O` [HDA-31, cyclo(-L-Asu(NHOH)-D-Tyr(Me)-L-Ile-D-Pro-)] (cyclo([Asu](NHOH)[dY](Me)I[dP])), the “tumor weight” value (B16; B16, 1 mg/kg tail vein on day-7, 10, 13 and 16) was 258 ± 184 mg, the “tumor weight” value (B16; B16, 3 mg/kg tail vein on day-7, 10, 13 and 16) was 280 ± 152 mg and the “tumor weight” value (B16; B16, 10 mg/kg tail vein on day-7, 10, 13 and 16) was 120 ± 112 mg. For the same molecule, the “tumor weight” value (Meth A; 1 mg/kg tail vein on day-7, 10, 13 and 16, measured day-21, estimated from diameters) was 2100 ± 570 mg, the “tumor weight” value (Meth A; 3 mg/kg tail vein on day-7, 10, 13 and 16, measured day-21, estimated from diameters) was 1230 ± 500 mg and the “tumor weight” value (Meth A; 10 mg/kg tail vein on day-7, 10, 13 and 16, measured day-21, estimated from diameters) was 1470 ± 500 mg. The “tumor weight” value (Colon 26; Colon 26, 1 mg/kg tail vein on day-4, 7 and 10) was 756 ± 25 mg, the “tumor weight” value (Colon 26; Colon 26, 3 mg/kg tail vein on day-4, 7 and 10) was 677 ± 155 mg and the “tumor weight” value (Colon 26; Colon 26, 10 mg/kg tail vein on day-4, 7 and 10) was 726 ± 123 mg. For the same molecule, the IC50 [1] was 44.2 nM, the “conc. for 2-fold expression (nM) mean” value (B16/BL6 cells) was 1.41 nM and the pIC50 (histone deacetylase) was 8.48.
